Holding throughout (assay): ITC
Common to all, as to assay type: binding

Experiment [1] has as its target T1, Gal-8FL (full-length human galectin-8) (Homo sapiens, UniProt O00214).
T1 sequence (O00214 1-317): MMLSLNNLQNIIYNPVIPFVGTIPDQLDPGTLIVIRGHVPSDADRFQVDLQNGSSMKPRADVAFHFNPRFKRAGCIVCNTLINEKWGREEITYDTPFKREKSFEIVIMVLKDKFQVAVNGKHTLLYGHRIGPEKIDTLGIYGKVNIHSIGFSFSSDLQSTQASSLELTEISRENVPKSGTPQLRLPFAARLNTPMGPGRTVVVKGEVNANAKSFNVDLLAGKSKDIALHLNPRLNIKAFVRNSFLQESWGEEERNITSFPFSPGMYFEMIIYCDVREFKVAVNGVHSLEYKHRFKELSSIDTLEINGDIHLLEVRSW
The settings on record: PBS (50 mM sodium phosphate, 150 mM NaCl) pH 7.4, 1 mM TCEP, 298 K.

The target of experiment [2] is T2, Gal-8N (N-terminal CRD of human galectin-8) (Homo sapiens, UniProt O00214).
T2 sequence (O00214 1-155): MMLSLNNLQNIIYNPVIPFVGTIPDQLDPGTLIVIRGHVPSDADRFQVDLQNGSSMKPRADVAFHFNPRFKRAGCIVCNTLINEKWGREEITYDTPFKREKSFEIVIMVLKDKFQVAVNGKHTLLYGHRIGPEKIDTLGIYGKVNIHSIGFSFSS
The settings on record: read-out: Neu5Acα2-3Galb1-3GalNAc (3); PBS (50 mM sodium phosphate, 150 mM NaCl) pH 7.4, 1 mM TCEP, 298 K.

The target in experiment [3] is T3, Gal-8C (C-terminal CRD of human galectin-8) (Homo sapiens, UniProt O00214).
T3 sequence (O00214 184-317): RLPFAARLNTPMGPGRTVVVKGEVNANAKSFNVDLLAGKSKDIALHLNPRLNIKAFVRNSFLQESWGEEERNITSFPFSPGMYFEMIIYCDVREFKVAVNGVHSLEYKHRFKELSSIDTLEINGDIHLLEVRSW
The following applies: PBS (50 mM sodium phosphate, 150 mM NaCl) pH 7.4, 1 mM TCEP, 298 K.

Where two headings read alike, the source gives them in different places.

Take `CC(=O)N[C@H]1[C@H]([C@H](O)[C@H](O)CO)O[C@@](O[C@H]2[C@@H](O)[C@@H](CO)O[C@@H](O[C@H]3[C@@H](O)[C@@H](CO)OC(O)[C@@H]3NC(C)=O)[C@@H]2O)(C(=O)O)C[C@@H]1O` (stereo partly drawn) [compound 3, 3-sialyl-Galβ1–3GalNAc]: the Kd in experiment [1] (read-out: Neu5Acα2-3Galb1-3GalNAc (3), site: N-terminal CRD, not pre-loaded) stood at 4.3 ± 0.4 µM; in experiment [2], 2200 ± 100 nM.

Regarding `CC(=O)N[C@H]1C(O)O[C@H](CO)[C@@H](O[C@@H]2O[C@H](CO)[C@H](O)[C@H](O[C@H]3O[C@H](CO)[C@H](O)[C@H](O)[C@H]3O)[C@H]2O[C@@H]2O[C@@H](C)[C@@H](O)[C@@H](O)[C@@H]2O)[C@@H]1O` (stereo partly drawn) [compound 5, B type II], the Kd in experiment [3] (read-out: B type II (5)) worked out at 18.4 ± 0.1 µM; in experiment [1] (read-out: B type II (5), site: C-terminal CRD), 36.7 ± 0.6 µM.

As to `CC(=O)N[C@H]1[C@@H](O[C@H]2[C@@H](O)[C@@H](CO)O[C@@H](O[C@H]3[C@H](O)[C@@H](NC(C)=O)C(O)O[C@@H]3CO)[C@@H]2O[C@@H]2O[C@@H](C)[C@@H](O)[C@@H](O)[C@@H]2O)O[C@H](CO)[C@H](O)[C@@H]1O` (stereo partly drawn) [compound 6, A type II], the Kd in experiment [3] (read-out: A type II (6)) was 13.45 ± 0.05 µM; in experiment [1] (read-out: A type II (6), site: C-terminal CRD, not pre-loaded), 12 ± 1 µM.

For the origin of these results see article PMC8190895 (RSC Chemical Biology, 2021).
